Results published in BindingDB's records for doi:10.7270/Q2ZW1JC6 (Nmmlsc, 2016).

Target: Ras-related protein Rab-2A (Canis lupus familiaris, UniProt P61105)
Assay: Rab2 wildtype GTP-binding inhibitors, SAR follow-up, biochemical, pyrazoline series, Bodipy-FL-GTP, flow cytometry, multiplex (AID 2045)
[1] = inactive by the depositor's call

Chain of Ras-related protein Rab-2A (P61105 whole entry): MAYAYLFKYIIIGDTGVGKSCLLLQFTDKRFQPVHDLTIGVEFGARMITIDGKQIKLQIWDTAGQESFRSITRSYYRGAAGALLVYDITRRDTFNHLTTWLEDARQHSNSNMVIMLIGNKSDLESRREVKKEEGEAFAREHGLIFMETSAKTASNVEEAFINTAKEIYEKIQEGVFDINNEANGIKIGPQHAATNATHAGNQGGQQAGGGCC

Structure (SMILES)	EC50 [µM]	EC50 [1] [µM]
COc1ccc(C2C[C-](c3ccccc3)N=[N+]2c2ccc([N+](=O)[O-])cc2)cc1 (centres undefined) [3-(4-methoxyphenyl)-2-(4-nitrophenyl)-5-phenyl-3,4-dihydropyrazole]	> 30	
Cc1ccc(C2CC(c3ccccc3)=NN2c2ccc(S(N)(=O)=O)cc2)cc1 (centres undefined)	> 30	
O=[N+]([O-])c1ccc([N+]2=N[C-](c3ccccc3)CC2c2ccccc2)cc1 (centres undefined)	> 30	
COc1ccc(C2CC(c3ccc(F)cc3)=NN2c2cc(Cl)ccc2Cl)cc1 (centres undefined) [2-(2,5-dichlorophenyl)-5-(4-fluorophenyl)-3-(4-methoxyphenyl)-3,4-dihydropyrazole]	> 30	
COc1ccc(C2CC(c3ccccc3)=NN2c2cccc(S(N)(=O)=O)c2)cc1 (centres undefined) [3-[3-(4-methoxyphenyl)-5-phenyl-3,4-dihydropyrazol-2-yl]benzenesulfonamide]		0.074
O=S(=O)(c1ccc(N2N=C(c3ccc(Br)cc3)CC2c2ccccc2)cc1)C(F)F (centres undefined) [5-(4-bromophenyl)-2-[4-(difluoromethylsulfonyl)phenyl]-3-phenyl-3,4-dihydropyrazole]	> 30	
COc1ccc(C2CC(c3ccccc3)=NN2c2ccc(Cl)c(C(=O)O)c2)cc1 (centres undefined)	> 30	
COc1ccc(C2CC(c3ccc(F)cc3)=NN2c2cccc(F)c2)cc1OC (centres undefined)	> 30	
COc1ccc(C2CC(c3cccnc3)=NN2c2ccc(S(N)(=O)=O)cc2)cc1 (centres undefined)	> 30	
COc1ccc(C2CC(c3cccc(C(F)(F)F)c3)=NN2c2ccc(S(N)(=O)=O)cc2)cc1 (centres undefined)	> 30	
Cc1cccc(C2CC(c3ccccc3)=NN2c2ccc(S(N)(=O)=O)cc2)c1 (centres undefined)	> 30	
COc1ccc(C2CC(c3ccc(C(F)(F)F)cc3)=NN2c2ccc(S(N)(=O)=O)cc2)cc1 (centres undefined) [4-[3-(4-methoxyphenyl)-5-[4-(trifluoromethyl)phenyl]-3,4-dihydropyrazol-2-yl]benzenesulfonamide]	> 30	
NS(=O)(=O)c1ccc(N2N=C(c3ccccc3)CC2c2ccccc2)cc1 (centres undefined) [4-(3,5-diphenyl-3,4-dihydropyrazol-2-yl)benzenesulfonamide]	> 30	
COc1ccc(C2=NN(c3ccc(S(N)(=O)=O)cc3)C(c3ccc(OC)cc3)C2)cc1 (centres undefined) [4-[3,5-bis(4-methoxyphenyl)-3,4-dihydropyrazol-2-yl]benzenesulfonamide]		1.69
NS(=O)(=O)c1ccc(N2N=C(c3ccccc3)CC2c2ccc(Cl)cc2)cc1 (centres undefined) [4-[3-(4-chlorophenyl)-5-phenyl-3,4-dihydropyrazol-2-yl]benzenesulfonamide]	> 30	
COc1ccc(C2CC(c3ccccc3Cl)=NN2c2ccc(S(N)(=O)=O)cc2)cc1 (centres undefined) [4-[5-(2-chlorophenyl)-3-(4-methoxyphenyl)-3,4-dihydropyrazol-2-yl]benzenesulfonamide]	> 30	
Clc1cccc(N2N=C(c3ccccc3)CC2c2ccccc2)c1 (centres undefined)	> 30	
COc1ccc(C2=NN(c3cccc(F)c3)C(c3ccc(Cl)cc3)C2)cc1 (centres undefined) [3-(4-chlorophenyl)-2-(3-fluorophenyl)-5-(4-methoxyphenyl)-3,4-dihydropyrazole]	> 30	
COc1ccc(C2CC(c3ccc(F)cc3)=NN2c2ccc(S(N)(=O)=O)cc2)cc1 (centres undefined) [4-[5-(4-fluorophenyl)-3-(4-methoxyphenyl)-3,4-dihydropyrazol-2-yl]benzenesulfonamide]		0.015
Brc1ccc(N2N=C(c3ccccc3)CC2c2ccccc2)cc1 (centres undefined)	> 30	

Structure (SMILES)	EC50 [µM]	EC50 [1] [µM]
CC(=O)Oc1ccc(C2=NN(c3ccccc3)C(c3ccccc3)C2)cc1 (centres undefined)	> 30	
Cc1onc(-c2ccccc2)c1-c1ccc(S(N)(=O)=O)cc1	> 30	
O=C(O)c1ccc(N2N=C(c3ccccc3)CC2c2ccccc2)cc1 (centres undefined)	> 30	
COc1ccc(C2CC(c3ccc(C)cc3)=NN2c2ccc(S(N)(=O)=O)cc2)cc1 (centres undefined)	> 30	
NS(=O)(=O)c1ccc(N2N=C(c3ccc(Cl)cc3)CC2c2ccccc2)cc1 (centres undefined)		0.056
Fc1ccc(C2=NN(c3cccc(Br)c3)C(c3ccccc3)C2)cc1 (centres undefined) [2-(3-bromophenyl)-5-(4-fluorophenyl)-3-phenyl-3,4-dihydropyrazole]	> 30	
COc1ccc(C2CC(C)=NN2c2ccc(S(N)(=O)=O)cc2)cc1 (centres undefined) [4-[3-(4-methoxyphenyl)-5-methyl-3,4-dihydropyrazol-2-yl]benzenesulfonamide]	> 30	
COc1ccc(C2CC(c3cccc(F)c3)=NN2c2ccc(S(N)(=O)=O)cc2)cc1 (centres undefined) [4-[5-(3-fluorophenyl)-3-(4-methoxyphenyl)-3,4-dihydropyrazol-2-yl]benzenesulfonamide]	> 30	
COc1ccc(C2CC(C3CCCCC3)=NN2c2ccc(S(N)(=O)=O)cc2)cc1 (centres undefined) [4-[5-cyclohexyl-3-(4-methoxyphenyl)-3,4-dihydropyrazol-2-yl]benzenesulfonamide]	> 30	
O=S(=O)(c1ccc(N2N=C(c3ccccc3)CC2c2ccccc2)cc1)C(F)F (centres undefined)	> 30	
CN(C)c1ccc(C2CC(c3ccccc3)=NN2c2ccccc2)cc1 (centres undefined) [4-(2,5-diphenyl-3,4-dihydropyrazol-3-yl)-N,N-dimethylaniline]	> 30	
NS(=O)(=O)c1ccc(N2N=C(c3ccccc3)CC2c2ccccc2Br)cc1 (centres undefined) [4-[3-(2-bromophenyl)-5-phenyl-3,4-dihydropyrazol-2-yl]benzenesulfonamide]	> 30	
COc1ccc(C2CC(c3cccc(OC)c3)=NN2c2ccc(S(N)(=O)=O)cc2)cc1 (centres undefined) [4-[5-(3-methoxyphenyl)-3-(4-methoxyphenyl)-3,4-dihydropyrazol-2-yl]benzenesulfonamide]	> 30	
COc1ccc(C2CC(c3ccccc3OC)=NN2c2ccc(S(N)(=O)=O)cc2)cc1 (centres undefined)	> 30	
COc1ccccc1C1CC(c2ccccc2)=NN1c1ccccc1 (centres undefined)	> 30	
COc1ccc(C2=NN(c3cccc(F)c3)C(c3ccc(OC)cc3)C2)cc1 (centres undefined) [2-(3-fluorophenyl)-3,5-bis(4-methoxyphenyl)-3,4-dihydropyrazole]		1
COc1ccc(C2CC(c3ccccc3)=NN2c2ccc(Cl)c(C(=O)O)c2)cc1OC (centres undefined) [2-chloro-5-[3-(3,4-dimethoxyphenyl)-5-phenyl-3,4-dihydropyrazol-2-yl]benzoic acid]	> 30	
NS(=O)(=O)c1ccc(N2N=C(c3ccc(Br)cc3)CC2c2ccc(F)cc2)cc1 (centres undefined) [4-[5-(4-bromophenyl)-3-(4-fluorophenyl)-3,4-dihydropyrazol-2-yl]benzenesulfonamide]	> 30	
FC(F)(F)c1ccccc1C1CC(c2ccc(Br)cc2)=NN1c1ccccc1 (centres undefined) [5-(4-bromophenyl)-2-phenyl-3-[2-(trifluoromethyl)phenyl]-3,4-dihydropyrazole]	> 30	
COc1cccc(C2CC(c3ccccc3)=NN2c2ccc(S(N)(=O)=O)cc2)c1 (centres undefined) [4-[3-(3-methoxyphenyl)-5-phenyl-3,4-dihydropyrazol-2-yl]benzenesulfonamide]	> 30	

More lines, now with the values ahead:

EC50 [µM]	EC50 [1] [µM]	Structure (SMILES)
> 30		CN(C)c1ccc(C2CC(c3ccc(F)cc3)=NN2c2ccccc2)cc1 (centres undefined) [UNM-0000305866]
> 30		Cc1ccc(-c2cc(C(F)(F)F)nn2-c2ccc(S(N)(=O)=O)cc2)cc1 [Celecoxib]
> 30		O=S(=O)(O)c1ccc(N2N=C(c3ccccc3)CC2c2ccccc2)cc1 (centres undefined) [UNM-0000305834]
> 30		NS(=O)(=O)c1ccc(N2N=C(c3ccccc3)CC2c2ccc(Br)cc2)cc1 (centres undefined) [UNM-0000306160]
> 30		COc1ccc(C2CC(c3ccccc3C(F)(F)F)=NN2c2ccc(S(N)(=O)=O)cc2)cc1 (centres undefined) [KUC103474N]
> 30		COc1ccc(C2CC(c3ccc(Br)cc3)=NN2c2ccccc2Cl)cc1 (centres undefined) [UNM-0000305832]
> 30		NS(=O)(=O)c1ccc(N2N=C(c3ccccc3)CC2c2ccccc2Cl)cc1 (centres undefined) [KUC103446N]
> 30		O=[N+]([O-])c1ccc([N+]2=N[C-](c3ccccc3)CC2c2ccc(O)cc2)cc1 (centres undefined) [UNM-0000305838]
> 30		COc1ccc(C2CC(c3cccc(Br)c3)=NN2c2ccc(S(N)(=O)=O)cc2)cc1 (centres undefined) [UNM-0000306113]
> 30		COc1ccc(C2=NN(c3ccccc3F)C(c3ccc(F)cc3)C2)cc1 (centres undefined) [UNM-0000305860]
> 30		COc1ccc(C2CC(c3ccccc3)=NN2c2ccc(S(N)(=O)=O)cc2)cc1OC (centres undefined) [UNM-0000305823]
> 30		COc1ccc(C2CC(c3cccc(C)c3)=NN2c2ccc(S(N)(=O)=O)cc2)cc1 (centres undefined) [UNM-0000306153]
> 30		COc1ccc(C2CC(c3ccccc3)=NN2c2ccc(C(N)=O)cc2)cc1 (centres undefined) [UNM-0000305870]
> 30		COc1ccc(C2=NN(c3ccc(Cl)cc3)C(c3ccccc3F)C2)cc1 (centres undefined) [UNM-0000305863]
> 30		COc1ccc(C2CC(C(C)(C)C)=NN2c2ccc(S(N)(=O)=O)cc2)cc1 (centres undefined) [KUC103450N]
> 30		COc1ccc(C2CC(c3cccc(Cl)c3)=NN2c2ccc(S(N)(=O)=O)cc2)cc1 (centres undefined) [UNM-0000306134]
> 30		COc1ccc(C2CC(c3ccc(N(C)C)cc3)=NN2c2ccc(S(N)(=O)=O)cc2)cc1 (centres undefined) [KUC103422N]
> 30		CN(C)c1ccc(C2CC(c3ccc(Cl)cc3)=NN2c2ccccc2)cc1 (centres undefined) [UNM-0000305847]
> 30		COc1ccccc1N1N=C(c2ccccc2)CC1c1ccccc1 (centres undefined) [UNM-0000305855]
> 30		Cc1ccccc1N1N=C(c2ccccc2)CC1c1ccc(N(C)C)cc1 (centres undefined) [N,N-dimethyl-4-[2-(2-methylphenyl)-5-phenyl-3,4-dihydropyrazol-3-yl]aniline]
> 30		Cc1ccccc1C1CC(c2ccccc2)=NN1c1ccc(S(N)(=O)=O)cc1 (centres undefined) [UNM-0000306148]
> 30		COc1ccc(C2CC(c3cccs3)=NN2c2ccc(S(N)(=O)=O)cc2)cc1 (centres undefined) [KUC103438N]
> 30		O=[N+]([O-])c1cccc(C2C[C-](c3ccccc3)N=[N+]2c2ccccc2)c1 (centres undefined) [UNM-0000305857]
> 30		COc1ccc(C2=NN(c3ccccc3)C(c3ccc(OC)c(OC)c3C(=O)O)C2)cc1 (centres undefined) [UNM-0000305848]
> 30		COc1ccc(C2CC(c3ccc(F)cc3)=NN2c2ccccc2)cc1OC (centres undefined) [UNM-0000305864]
> 30		COc1ccc(C2=NN(c3ccccc3)C(c3ccc(Cl)cc3)C2)cc1 (centres undefined) [UNM-0000305833]
> 30		FC(F)(F)c1cccc(N2N=C(c3ccc(Cl)cc3)CC2c2ccccc2Cl)c1 (centres undefined) [UNM-0000305859]
> 30		COc1ccc(C2CC(c3ccccc3)=NN2c2ccc(C(=O)O)cc2)cc1 (centres undefined) [UNM-0000306085]
> 30		NS(=O)(=O)c1ccc(N2N=C(c3ccccc3)CC2c2cccc(Cl)c2)cc1 (centres undefined) [UNM-0000306161]
